Columns and labels:
4T1 cells [1] = assay: Detection of ROS production (CellROX Green, confocal); format: cell-based, murine; details: 100 μM, positive control
Procedure: To measure the potential oxidative stress in living cells, as a consequence of the presence of the BMNPs, CelIROX® Green Reagent (ThermoFisher) was used following the protocol recommended by the manufacturer. Briefly, cells (approximately 20×10^3 4T1/well) were seeded on glass coverslips in 24-well plates. After their exposure to different concentrations (0.1, 1, 10, 100 μg/mL), in the presence and absence of a gradient magnetic field, of BMNPs for 4 hours, the cells were washed with PBS and CelIROX® Green Reagent was added to a final concentration of 5 μM in 300 μl of DMEM medium without serum. Then, the plate was incubated in the dark at 37° C. for 30 minutes. Menadione (100 μM) was used as a positive control. After the incubation time, the coverslips were washed with PBS pH 7.2, fixed with 4% paraformaldehyde in PBS, washed again and permeabilized with 0.1% Triton-X100 for 10 minutes. Finally, the coverslips were stained and mounted on specimen slides (Biosigma). […] Therefore, the emission of green fluorescence (at 485/520 nm) is stable and is produced after the DNA binding, and therefore its signal is mainly located in the nucleus and in the mitochondria. Fluorescence was detected using a Spectral Confocal Leica TCS SP2 AOBS microscope. […]

4T1 cells [2] = assay: Confocal analysis of DOXO internalization; format: cell-based, murine; details: soluble drug, positive control
Procedure: Cells (approximately 20×10^3 4T1/well) were seeded on glass coverslips in 24-well plates and, after 24 h, soluble DOXO (as a positive control) or DOXO-BMNP suspensions were added. After incubation at 37° C. for different periods of time (30 seconds, 5 and 30 minutes) in the absence (−GMF) and in the presence (+GMF) of a gradient magnetic field, coverslips were washed with fresh PBS pH 7.2 and fixed with paraformaldehyde (2% wt in PBS). To minimize unspecific interactions and permeabilize cells, coverslips were washed with Tris-Buffered Saline (TBS) containing 5% Bovine Serum Albumin (BSA), 0.1% Triton X-100 and 5% got serum and then stained. In particular cytoskeletal actin microfilaments were stained with FITC-phalloidin (Sigma-Aldrich, excitation at 488 nm; emission at 500-535 nm) and nuclei were stained with TO-PRO-3 (1/70, Life Technologies; excitation at 633 nm; emission at 650-750 nm). DOXO was detected after excitation at 476 nm and emission at 575-630 nm. Fluorescence was detected using a Leica TCS SP2 AOBS Spectral Confocal Scanner microscope. Images were taken at 400× magnification. ImageJ software was used for analysis.

4T1 tumors = assay: In vivo magnetic targeting and antitumor activity; set-up: species or system BALB/c mice; details: day 15, 2 mg/kg DOXO i.v. x5
Text: Female BALB/c mice were inoculated with 10^5 4T1 cells into a mammary gland fat pad. […] The 6 groups were intravenously injected and treated as follows: i) PBS (control), ii-iii) DOXO-BMNPs +/−gradient magnetic field, iv-v) BMNPs +/−gradient magnetic field, and vi) soluble DOXO. […] The magnetic field was applied by attaching a 10 mm in diameter×3 mm thick N42 neodymium magnet (1.8 kg pull, Magnet Expert Ltd) with 3MTM Vetbond™ tissue adhesive on the tumor site and keeping it attached for 1 hour after the injection. This neodymium magnet, with a magnetic anisotropy normal to the plane and a saturation magnetization of 800 emu/cc, could generate a direct current (d.c.) magnetic field of the order of 100 Oe a few millimeters from the surface. Therefore, the effect of the magnet is equivalent to the application of a local 100-Oe external d.c. magnetic field immediately after the administration of the nanoparticles. Throughout the study, body weight and tumor volumes (measured with caliper) were recorded every 3-4 days. Three days after the last injections (day 18), mice were euthanized, their weights, as well as, tumor weights were recorded and, then, tumors, hearts, livers, spleens, brains, lungs, and kidneys were collected for histology. Histological sections of the tumors were prepared for hematoxylin-eosin and Prussian blue staining to analyze particle biodistribution.

ROS release (4T1 cells [1])	SMILES	internalization of DOXO in cell nuclei (confocal) (4T1 cells [2])	tumor volume (4T1 tumors)
clearly visible	CC1=CC(=O)c2ccccc2C1=O [Menadione]	–	–
–	COc1cccc2c1C(=O)c1c(O)c3c(c(O)c1C2=O)C[C@@](O)(C(=O)CO)C[C@@H]3O[C@H]1C[C@H](N)[C@H](O)[C@H](C)O1 [soluble DOXO, doxorubicin]	detected only after 5 min	significantly reduced

— patent publication US20220143212A1, “MAMC-MEDIATED BIOMIMETIC NANOPARTICLES” (UNIVERSIDAD DE GRANADA, priority 2018, published 2022)
